Measured values: patent publication US12257216B2, “Treatment for hot flushes” (Dignity Health, priority 2017, dated 2025)
“Also recorded” adds a separate entry of the source.

How the values were obtained:
ovariectomized rats [1] = assay: internal warming-induced cessation of warm sucrose intake test (sucrose intake cessation test); type: in vivo, rat; details: Experiment 4, SB366791 10 mg/kg by oral gavage 20 min prior to heat exposure (32.5° C., 10 min), vs OVX Vehicle+Vehicle
Description: Experiments were performed in adult female Wistar rats (Envigo) weighting 240-280 g at the day of the first surgery (Day 0). Rats were housed three per cage in standard “show boxes”. The room was maintained on a 12:12 h light-dark cycle (lights-on at 6 AM) at 24±2° C. All protocols were approved by the Institutional Animal Care and Use Committee. On Day 0, each rat was subjected to a bilateral ovariectomy or sham surgery, either with or without simultaneous implantation of a miniature data logger into the peritoneal cavity for body temperature measurement. On Day 7, the ovariectomized rats were implanted subcutaneously with a capsule containing either estradiol or vehicle, and the sham-operated rats were implanted with a capsule containing vehicle. On Days 6-15, the rats were habituated to experimental setups and procedures. […] Each burette was fitted with a stainless steel spout and filled with a 0.3 M sucrose solution at either 27 or 40° C., and sucrose solution consumption was recorded for 15 min. […] All data arc expressed as mean±SE. The preferred ambient temperature and sucrose intake data analyzed by a two-way repeated-measurements ANOVA, followed by the Fisher or Newman-Keuls multiple comparisons test, as appropriate. The uterus mass data were analyzed by a one-way ANOVA followed by the Fisher test. […]

ovariectomized rats [2] = assay: ambient warming-induced cold-seeking test in a thermogradient apparatus; type: in vivo, rat; details: vs OVX Vehicle+Vehicle
Description: Experiments were performed in adult female Wistar rats (Envigo) weighting 240-280 g at the day of the first surgery (Day 0). Rats were housed three per cage in standard “show boxes”. The room was maintained on a 12:12 h light-dark cycle (lights-on at 6 AM) at 24±2° C. All protocols were approved by the Institutional Animal Care and Use Committee.
On Day 0, each rat was subjected to a bilateral ovariectomy or sham surgery, either with or without simultaneous implantation of a miniature data logger into the peritoneal cavity for body temperature measurement. On Day 7, the ovariectomized rats were implanted subcutaneously with a capsule containing either estradiol or vehicle, and the sham-operated rats were implanted with a capsule containing vehicle. On Days 6-15, the rats were habituated to experimental setups and procedures. The rats were taken into experiments between Days 16 and 20 (Experiments 1-3) or on Days 13 and 20 (Experiment 4); each rat was used in two experiments. Thermal discomfort was studied in one of two tests: the ambient warming-induced cold-seeking test in a thermogradient apparatus (cold-seeking test; Experiments 1-3) or the internal warming-induced cessation of warm sucrose intake test (sucrose intake cessation test; Experiment 4). Some ovariectomized rats were treated with a TRPV1. antagonist (capsazepine, Al 165442, or SB366791) or vehicle prior to a test. After experiments (Day 21), each rat used in Experiments 1-3 was euthanized, and the uterus was removed and weighed to confirm the completeness of the ovariectomy and the effectiveness of the estradiol replacement procedure.
The goal of Experiment 1 was to determine whether ovariectomy facilitates the cold-seeking behavior after heat exposure, and whether this facilitation (if it occurs) is estradiol-dependent. […]
Cold-seeking test. […] The preferred ambient temperature was recorded for 10 min. […]

ovariectomized rats [3] = assay: uterus mass after ovariectomy and estradiol replacement; type: in vivo, rat; details: Experiment 1; ovariectomized rats with estradiol replacement; mean±SE; Day 21
Text: On Day 0, each rat was subjected to a bilateral ovariectomy or sham surgery, either with or without simultaneous implantation of a miniature data logger into the peritoneal cavity for body temperature measurement. On Day 7, the ovariectomized rats were implanted subcutaneously with a capsule containing either estradiol or vehicle, and the sham-operated rats were implanted with a capsule containing vehicle. On Days 6-15, the rats were habituated to experimental setups and procedures. The rats were taken into experiments between Days 16 and 20 (Experiments 1-3) or on Days 13 and 20 (Experiment 4); each rat was used in two experiments. Thermal discomfort was studied in one of two tests: the ambient warming-induced cold-seeking test in a thermogradient apparatus (cold-seeking test; Experiments 1-3) or the internal warming-induced cessation of warm sucrose intake test (sucrose intake cessation test; Experiment 4). Some ovariectomized rats were treated with a TRPV1. antagonist (capsazepine, Al 165442, or SB366791) or vehicle prior to a test. […] All data arc expressed as mean±SE. The preferred ambient temperature and sucrose intake data analyzed by a two-way repeated-measurements ANOVA, followed by the Fisher or Newman-Keuls multiple comparisons test, as appropriate. The uterus mass data were analyzed by a one-way ANOVA followed by the Fisher test. […]

[4] = as supported by animal studies; cited from earlier work
TRPV1 = TRPV1 (Homo sapiens, UniProt Q8NER1); details: cited from earlier work
Sequence of TRPV1 (Q8NER1 whole entry, species assumed): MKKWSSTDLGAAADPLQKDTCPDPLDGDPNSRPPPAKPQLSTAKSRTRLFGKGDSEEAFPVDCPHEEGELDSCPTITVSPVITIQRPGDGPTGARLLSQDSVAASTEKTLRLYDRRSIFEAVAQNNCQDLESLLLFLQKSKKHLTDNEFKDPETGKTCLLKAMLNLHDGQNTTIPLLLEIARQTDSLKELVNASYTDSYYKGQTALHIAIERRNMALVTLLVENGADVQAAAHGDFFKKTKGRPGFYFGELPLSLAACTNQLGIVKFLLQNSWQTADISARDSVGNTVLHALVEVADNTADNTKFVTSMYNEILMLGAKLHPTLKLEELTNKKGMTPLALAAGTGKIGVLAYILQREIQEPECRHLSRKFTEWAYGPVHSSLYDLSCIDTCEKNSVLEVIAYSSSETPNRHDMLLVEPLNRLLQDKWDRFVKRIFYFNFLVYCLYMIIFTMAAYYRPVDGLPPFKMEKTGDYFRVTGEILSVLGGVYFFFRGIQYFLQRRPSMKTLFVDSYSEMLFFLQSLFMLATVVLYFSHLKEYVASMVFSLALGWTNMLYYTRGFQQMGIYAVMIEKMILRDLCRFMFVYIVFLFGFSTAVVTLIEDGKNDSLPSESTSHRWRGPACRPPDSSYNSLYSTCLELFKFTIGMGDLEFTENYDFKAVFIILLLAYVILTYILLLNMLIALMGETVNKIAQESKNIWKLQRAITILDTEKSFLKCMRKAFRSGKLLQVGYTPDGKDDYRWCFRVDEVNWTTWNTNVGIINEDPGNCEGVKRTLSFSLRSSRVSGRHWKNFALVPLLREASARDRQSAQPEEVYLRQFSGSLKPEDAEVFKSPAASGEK

COc1cccc(NC(=O)/C=C/c2ccc(Cl)cc2)c1 [SB366791]
cumulative intake of warm (40° C.) sucrose solution (avoidance of internal warming) (ovariectomized rats [1]): attenuated; also recorded: treat this thermal discomfort; also recorded: significant difference

Cc1cc2c(NC(=O)N[C@@H]3CC(CF)(CF)Oc4cc(Cl)ccc43)cccc2cn1 [A1165442]
heat exposure-induced cold-seeking behavior (preferred ambient temperature) (ovariectomized rats [2]; Experiment 3, A1165442 100 mg/kg by oral gavage prior to 10-min mild heat exposure (31° C.), 100 mg/kg): strongly attenuated; also recorded: treat this thermal discomfort; also recorded: significant difference

Oc1cc2c(cc1O)CN(C(=S)NCCc1ccc(Cl)cc1)CCC2 [capsazepine]
heat exposure-induced cold-seeking behavior (preferred ambient temperature) (ovariectomized rats [2]; Experiment 2, capsazepine 40 mg/kg by oral gavage 30 min prior to 10-min mild heat exposure (31° C.)): strongly attenuated; also recorded: treat this thermal discomfort
heat exposure-induced cold-seeking behavior (preferred ambient temperature) (ovariectomized rats [2]; Experiment 2, capsazepine 40 mg/kg by oral gavage 30 min prior to 10-min mild heat exposure (31° C.), listed as Capsazepine): significant difference

C[C@]12CC[C@@H]3c4ccc(O)cc4CC[C@H]3[C@@H]1CC[C@@H]2O [Estradiol, estradiol]
uterus mass (ovariectomized rats [3]): 0.42 ± 0.02 g

FC(F)(F)c1ccc(-c2cc(Nc3ccc4ncsc4c3)ncn2)c(NCC2CCCCC2)c1 [AMG7905]
effect on body temperature [4]: cause hypothermia
effect on activation of TRPV1 by protons (TRPV1): potentiate the activation of TRPV1 by protons
